Experimental data taken from PubChem BioAssay AID1552 (Sanford-Burnham Center for Chemical Genomics, 2009).
Active and inactive are the calls of the source. The rule behind the calls is not given here.

The compounds below were run against Ubiquitin-conjugating enzyme E2 N (Homo sapiens) (UniProt P61088) (assay: UBE2N binders by NMR, biophysical, purified protein (AID 1552)). Conditions: NMR binding to purified UBE2N.
Sequence of Ubiquitin-conjugating enzyme E2 N (Homo sapiens) (P61088 whole entry, looked up): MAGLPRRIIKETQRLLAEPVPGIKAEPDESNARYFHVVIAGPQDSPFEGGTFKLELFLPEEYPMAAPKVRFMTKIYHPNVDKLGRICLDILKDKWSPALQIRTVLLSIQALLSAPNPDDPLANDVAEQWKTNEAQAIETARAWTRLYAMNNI

Compound | Kd
O=C1NC(=O)C(=Cc2ccccc2)C(=O)N1 | > 4 mM (inactive)
Nc1ccc2sccc2c1 | > 4 mM (inactive)
NC(=O)c1ccc(NC(=O)c2ccco2)cc1 | > 4 mM (inactive)
O=C(NCc1ccccc1F)c1cccs1 | > 4 mM (inactive)
Cc1nn2c(nc1=O)SCC(c1ccccc1)=N2 | > 4 mM (inactive)
COc1ccc(C)cc1S(=O)(=O)N1CCCCC1 | > 4 mM (inactive)
Cc1ccc(C(=O)Nc2ccncc2)o1 | > 4 mM (inactive)
C[C@]12CCC3C(CC[C@]4(O)C[C@@H](O)CC[C@]34C=O)[C@@]1(O)CCC2C1=CC(=O)OC1 (stereo not given in full) | > 4 mM (inactive)
O=C(Cn1cnc2ccccc2c1=O)N1CCOCC1 | > 4 mM (inactive)
O=C1CCNc2cc3ccccc3cc21 | > 4 mM (inactive)
S=C(CN1CCCC1=S)N1CCOCC1 | > 4 mM (inactive)
CN1CCN(c2ccc(CN)cc2)CC1 | > 4 mM (inactive)
CC(=O)OC1CC[C@@]2(C)C(CCC3C2CC[C@]2(C)C(C4=CC(=O)OC4)C(OC(C)=O)CC32O)C1 (stereo not given in full) | > 4 mM (inactive)
Cc1cc(C)n2nc(C(=O)NCc3ccco3)nc2n1 | > 4 mM (inactive)
CC1(C)C2CC(=O)[C@]3(C)C(CC[C@@]4(C)[C@H](c5ccoc5)OC(=O)[C@H]5O[C@]543)[C@@]2(C)C=C[C@@H]1O (stereo not given in full) | > 4 mM (inactive)
NC(=O)c1ccc(NC(=O)C2CC2)cc1 | > 4 mM (inactive)
NC(=O)C1CCN(C2CC(=O)NC2=O)CC1 (stereo not given) | > 4 mM (inactive)
Cc1cc(N)ccc1NC(=O)c1ccco1 | > 4 mM (inactive)
Cc1ccc(-c2nnn(CC(=O)O)n2)cc1 | > 4 mM (inactive)
O=C(CCc1ccc(O)cc1)c1c(O)cc(O)cc1O | > 4 mM (inactive)
OCc1csc(-c2cccs2)n1 | > 4 mM (inactive)
COc1cccc(Oc2ccc(N)cn2)c1 | > 4 mM (inactive)

Compound | Kd
COC(=O)c1cncn1C | > 4 mM (inactive)
CC(=O)c1cc2c(s1)SCC(=O)N2 | > 4 mM (inactive)
NS(=O)(=O)c1ccc(NC(=O)/C=C\C(=O)O)cc1 | > 4 mM (inactive)
Cn1nccc1N | > 4 mM (inactive)
CCC1(CC)C(=O)NC(=O)N=C1N | > 4 mM (inactive)
COc1c(-c2ccccc2)oc2c(OC)cccc2c1=O | > 4 mM (inactive)
C[n+]1cccc(C(=O)[O-])c1 | > 4 mM (inactive)
Cc1ncc(CC(=O)O)s1 | > 4 mM (inactive)
Nc1ccccc1C(=O)N1CCOCC1 | > 4 mM (inactive)
Cc1cc(NC(=O)Cc2c(F)cccc2Cl)no1 | > 4 mM (inactive)
NC(=O)C(=O)Nc1nc(-c2ccccc2)cs1 | > 4 mM (inactive)
N=Cc1c(O)n(-c2cccc(Cl)c2)c(=O)[nH]c1=O | > 4 mM (inactive)
O=C(c1cccc(-n2cnnn2)c1)N1CCOCC1 | > 4 mM (inactive)
Nc1cccc(F)c1-c1ncon1 | > 4 mM (inactive)
CC(C)(C)CC(=O)N1CCC(C(N)=O)CC1 | > 4 mM (inactive)
OCc1ccc2occc2c1 | > 4 mM (inactive)
O=C(CSc1ncn[nH]1)c1ccc2c(c1)OCCO2 | > 4 mM (inactive)
Cn1c(SCC(=O)NCCO)nc2ccccc2c1=O | > 4 mM (inactive)
CC(C)=CCC[C@](C)(O)C1CC=C(C)CC1 (stereo not given in full) | > 4 mM (inactive)
COc1ccc(-c2coc3cc(OC)cc(OC)c3c2=O)cc1 | > 4 mM (inactive)
Cc1nnc(N2CCN(c3ccccc3)CC2)[nH]c1=O | > 4 mM (inactive)
Cc1nc2ccc(C(=O)N3CCSCC3)cc2s1 | > 4 mM (inactive)

Compound | Kd
O=C(O)CCC(=O)Nc1nnc(C(F)(F)F)s1 | > 4 mM (inactive)
Cc1c(C(=O)Nn2cnnc2)oc2ccccc12 | > 4 mM (inactive)
CNC(=O)c1cc(S(=O)(=O)N(C)C)ccc1Cl | > 4 mM (inactive)
c1ccc2c(c1)nnn2C1CCNCC1 | > 4 mM (inactive)
CC(=O)O[C@H]1C[C@@H](OC(C)=O)C(C)(C)C2CC(=O)[C@]3(C)C(CC[C@@]4(C)[C@H](C(=O)O)OC(=O)C5OC543)[C@]21C (stereo not given in full) | > 4 mM (inactive)
O=C(O)c1cnn2ccccc12 | > 4 mM (inactive)
Cc1cc(O)cc(=O)o1 | > 4 mM (inactive)
CC(=O)Nc1ccc2c(c1)n(C)c(=O)n2C | > 4 mM (inactive)
O=C(Nn1cnnc1)c1csc2ccccc12 | > 4 mM (inactive)
COc1ccc(C(=O)NCC(=O)O)cc1 | > 4 mM (inactive)
CC(=O)N1CCn2c3c(c(=O)c4cc(C)ccc42)CCC31 (stereo not given) | > 4 mM (inactive)
CC1(C)CC2(C)N(N)C(=O)CN2C(=S)N1 (stereo not given) | > 4 mM (inactive)
O=C(Nc1ccon1)c1ccc2c(c1)OCO2 | > 4 mM (inactive)
Cc1ccc(/C=N/n2c(C)nnc2C)cc1 | > 4 mM (inactive)
COCC(=O)Nc1cc2c3c(c1)CCN3C(=O)CC2 | > 4 mM (inactive)
O=C1CSC(=Nc2ccc(O)cc2)N1 | > 4 mM (inactive)
O=c1c[n+]([O-])c2ccccc2n1OCc1ccccc1 | > 4 mM (inactive)
O=S1(=O)CCC(NC(=S)N2CCCCC2)C1 (stereo not given) | > 4 mM (inactive)
O=C(/C=C/C=C/c1ccc2c(c1)OCO2)N1CCCCC1 | > 4 mM (inactive)
O=C(Cc1ccccc1)Nc1c[nH]c(=O)[nH]c1=O | > 4 mM (inactive)
CCN(CC)S(=O)(=O)c1cccc2nsnc12 | > 4 mM (inactive)
CCCCCc1c2c(cc(O)c1C(=O)O)OC(=O)c1c(cc(OC)cc1C(=O)CCCC)O2 | > 4 mM (inactive)

Compound | Kd
CN1CCC(NC(=O)Cc2c(F)cccc2Cl)CC1 | > 4 mM (inactive)
CC(=O)Nc1ccc(S(=O)(=O)NC2=NCCS2)cc1 | > 4 mM (inactive)
COc1ccc(Cl)c(S(=O)(=O)N2CCCC2)c1 | > 4 mM (inactive)
O=C(O)c1snnc1-c1ccccc1 | > 4 mM (inactive)
CO[C@H]1[C@@H](O)[C@@H](C)O[C@H](O[C@H]2CCC3(C)C4CCC5(C)[C@@H](C6=CC(=O)OC6)CC[C@]5(O)[C@@H]4CC[C@]3(O)C2)[C@@H]1O (stereo not given in full) | > 4 mM (inactive)
Cc1n[nH]c(=O)c2ncn(C)c12 | > 4 mM (inactive)
C/C=C(\C)C(=O)O[C@H]1C[C@@H](OC(C)=O)[C@@]2(C(=O)OC)CO[C@@H]3C2[C@]12CO[C@](O)(C(=O)OC)[C@H]2[C@](C)(C12O[C@@]1(C)[C@H]1C[C@@H]2OC2OC=C[C@@]21O)[C@@H]3O (stereo not given in full) | > 4 mM (inactive)
Cc1cc2ncc(C(=O)O)c(C)n2n1 | > 4 mM (inactive)
CC1=NN(C(N)=S)C(C)(C)C1 | > 4 mM (inactive)
Cc1nc(-c2cc(CO)no2)cs1 | > 4 mM (inactive)
C/C1=C/CC(C)(C)/C=C/C/C(C)=C/CC1 | > 4 mM (inactive)
Oc1ccccc1N=Cc1cccnc1 | > 4 mM (inactive)
NCc1ccc(CN2CCOCC2)cc1 | > 4 mM (inactive)
Oc1ccc(C(=S)N2CCOCC2)cc1 | > 4 mM (inactive)
CC(=O)c1c(O)cc(C)n(Cc2ccccc2)c1=O | > 4 mM (inactive)
CCOc1ccc(C)cc1S(=O)(=O)n1ccc(C)n1 | > 4 mM (inactive)
CC1(C)C(=O)N(O)C(C)(C)C(=O)N1O | > 4 mM (inactive)
Cc1cc(C)n2nc(-c3cccnc3)nc2n1 | > 4 mM (inactive)
NC(=O)Nc1cccc(C(F)(F)F)c1 | > 4 mM (inactive)
